Source: US20250281649A1, “PROBE DIRECTED TO ENZYME ALDH1A3 AND USE THEREOF IN THE DIAGNOSIS OF GLIOBLASTOMA” (Universita' Degli Studi Del Piemonte Orientale "A. Avogadro", priority 2021, published 2025)
Entries after “also recorded” stand apart in the source; their conditions may differ.

Experiments:
ALDH1A3 = target: T1, ALDH1A3 (Homo sapiens, UniProt P47895); assay: Fluorescence of probes in buffer and in complex with the isoenzymes (Tecan SPARK); type: binding; details: in complex with the three isoenzymes, in particular ALDH1A3
T1 construct: His-tag; made in house; host or cells: bacterial cells
T1 sequence (P47895 1-512): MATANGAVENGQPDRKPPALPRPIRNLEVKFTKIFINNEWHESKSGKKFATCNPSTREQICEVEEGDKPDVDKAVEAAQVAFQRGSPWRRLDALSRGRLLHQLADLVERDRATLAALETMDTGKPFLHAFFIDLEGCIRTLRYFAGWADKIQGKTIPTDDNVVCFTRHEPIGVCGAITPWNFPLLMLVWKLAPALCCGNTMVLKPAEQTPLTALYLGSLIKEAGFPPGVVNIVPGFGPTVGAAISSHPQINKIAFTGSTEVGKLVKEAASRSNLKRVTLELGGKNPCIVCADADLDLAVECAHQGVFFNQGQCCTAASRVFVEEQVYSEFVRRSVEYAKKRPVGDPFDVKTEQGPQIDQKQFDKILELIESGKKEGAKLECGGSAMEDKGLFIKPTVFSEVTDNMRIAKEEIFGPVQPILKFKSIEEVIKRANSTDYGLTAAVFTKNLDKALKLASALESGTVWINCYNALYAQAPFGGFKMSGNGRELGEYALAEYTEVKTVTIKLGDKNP
Experimental: All five compounds were dissolved in DMSO (100%) to obtain two different initial stocks, one at 10 mM and a second one at 1 mM. […] The assay can be executed at a maximum DMSO percentage of 15%. The maximum probe concentration tested was 500 uM—15% DMSO. All the compounds were tested using a Tecan—SPARK, to analyze their absorbance, excitation and emission wavelength. Based on the literature, the absorbance of the curcumin by itself is comprised between 420 and 425 nm. At first, we measured the absorbance, and from those values, we performed a 3D analysis to highlights the correct Ex and Em wavelengths. To avoid any possible background in the fluorescence signal we performed a screening of every possible buffer used in our assays.

[1] = tested on: U87MG glioblastoma (ALDH1A3+); assay: Confocal fluorescence of probes in cell lines; type: cell-based, human; details: 10 μM to 100 nM, after 2 h
Experimental: All 3 enzymes belonging to the subfamily 1A of aldehyde dehydrogenases were expressed recombinantly in bacterial cells and purified to homogeneity. The pure enzymes were then used to study the interaction with the molecules according to the invention, using various in vitro biochemical assays. In particular, the affinity for the isoenzymes of the selected molecules was measured through the use of a TECAN SPARK and a TECAN SUNRISE. Fluorescence assays were performed in the presence of different protein concentrations and the activity assays were conducted by measuring NAD^+ consumption. According to their specific activity, all molecules were characterized by values of KD, KM, Ki and IC50, showing a net selectivity in specifically binding the ALDH1A3 enzyme. […]
Human U87MG glioblastoma were used as ALDH1A3+ cell lines, HEK293T as ALDH1A2+ cell line, human foetal astrocytes (hASTRO) as ALDH1A1+ cell line and 4T1 mammary carcinoma as triple negative ALDHIA subfamily (checked with Western Blot analysis and RT-PCR). […] Moreover, we incubated the two probes with cells and analyzed with FACS and we observed a significant positivity in U87MG cells, too.

GL261 glioblastoma cells = assay: In vivo labelling of GL261 glioma in mouse brain after i.p. injection; details: GL261 tumor-bearing mouse brain, 6 hours after injection, 6 days after implantation
Excerpt: We used in vitro and in vivo cells from a mouse high grade glioma cell line, GL261, Briefly, twenty-four 2- to 3-month-old female C57BIC mice were stereotactically implanted under deep general anesthesia (isoflurane supplemented with nitrous oxide) with 1×10^5 GL261 glioblastoma cells. The cells were stereotactically inoculated through a burr hole by a Hamilton syringe into the left striatum (coordinates: 1 mm anteroposterior and 1 mm lateral from bregma, at a depth of 3 mm). All experimental procedures were conducted in accordance with the European Communities Council Directive of 24 Nov. 1986 (86/609 EEC), Recommendation 18/06/2007, Dir. 2010/63/UE, and the Italian law for care and use of experimental animals (DL116/92) and were approved by the Italian Ministry of Health (prot. E669C.15) and the Bioethical Committee of the University of Turin. All animals were housed under a 12-hour light-dark cycle in an environmentally controlled room. All experiments were designed to minimize the numbers of animals used and their discomfort. In each experiment, animals with tumors were allocated to two groups and i.p. injected with probe 14 or probe 13. All drugs were administered intraperitoneally, and treatments were started days 6 after tumor implantation. […] Quantitative and phenotypic evaluations were made on images acquired with a Leica TCS SP5 confocal microscope.

SMILES	increase of fluorescence in complex with the isoenzymes (ALDH1A3)	fluorescence signal in cells [1]	probe fluorescence / penetration in tumor cells in vivo (GL261 glioblastoma cells)
COc1cc(/C=C/C(=O)/C=C(O)/C=C/c2ccc(OCc3cn(CCOc4ccc(C=O)cc4)nn3)c(OC)c2)ccc1O [Compound 13]	significant positive increment	selectivity; also recorded: selectively illuminate cells expressing only ALDH1A3	fluoresce in green
CCOC(=O)Cn1cc(COc2ccc(/C=C/C(O)=C/C(=O)/C=C/c3ccc(O)c(OC)c3)cc2OC)nn1 [Compound 14]	significant positive increment	selectivity	does not penetrate to any appreciable level
